Results taken from US20060185411A1, “Calcium polysulfide, potassium polysulfide, calcium thiosulfate, and magnesium thiosulfate as urease inhibitors” (Tessenderlo Kerley, Inc., priority 2005, published 2006).
Like-named read-outs stand apart in the source and are kept apart here.

Assays:
[1] = test system: soil urease; details: surface application of urea; literature; cited from earlier work
[2] = test system: urease; details: Example 6
[3] = pH of the solutions of urea and additive compound; assay type: physicochemical; details: urea-only solution
[4] = test system: urease; assay: Ammonia volatilization from soil-applied urea solution with additive compound (continuous air purge, ammonia collected in sulfuric acid, indophenol blue method)
Experimental: (§1) The amount of additive compound set forth in Table 1 below was added to a solution of reagent grade urea having a urea concentration of 13850 micrograms of nitrogen per 2 ml, together with the desired amount of compound. This urea concentration was selected to be equivalent to an application rate of 100 lbs of nitrogen per acre. A standard sample containing only urea in the same concentration and an unfertilized blank (2 ml of distilled water) also were applied to soil.
The amounts of additive compound were calculated to provide the desired quantity of that compound appropriate for application of a 50 percent w/v solution of urea (i.e., 50 grams of urea per 100 ml of water) to supply 100 lbs of nitrogen per acre. Each additive compound was used at 5 and 10 percent of the volume of urea solution. The treatments were therefore equivalent to the application 198 liters (52.3 US gallons) of urea solution per acre together with 9.9 liters (2.6 US gallons) of additive compound at the low rate or 19.8 liters (5.2 US Gallons) at the high rate.
Soil was treated and ammonia measurements were taken in accordance with the following method. Plastic containers with a diameter of 4.2 cm were used for this study. Each container was filled with 60 g of a sandy soil and moistened with 12 mls water to 86% of its water holding capacity. All treatments were surface applied in 2 mls of solution, bringing the moisture level up to field capacity.
The air was humidified before introduction by bubbling it through distilled water, then passing it through a cotton plug to remove moisture droplets. Evolved ammonia was collected by passing the air through 50 mls of 0.5 M sulfuric acid. This was sufficient to collect 3 times the total amount of nitrogen added, ensuring that the solution never became saturated with ammonia. The amounts of ammonia collected in the sulfuric acid solutions were determined by the indophenol blue method.
Ammonia measurements were taken at 2 and 7 days after application. […] The amounts of ammonia collected are expressed as a percentage of the total that was applied.
as §1, with “Table 3” for “Table 1”
The amounts of additive compound were calculated to provide the desired quantity of that compound appropriate for application of a 50 percent w/v solution of urea (i.e., 50 grams of urea per 100 ml of water) to supply 100 lbs of nitrogen per acre. The urea and additive compounds were applied to soil in accordance with the method described in Example 1.
Calcium polysulfide solution was added at a rate of 1, 2, 4 and 8 percent of the volume of urea solution. K-Sul® was added at a rate of 5 and 10 percent of the volume of urea solution. Ammonia measurements were taken at 2 and 7 days after application. […] The amounts of ammonia collected are expressed as a percentage of the total that was applied.
In each treatment, the appropriate amount of product was added to a solution of reagent grade urea and made to 100 mls in volumetric flasks. Concentrations were adjusted to ensure that the 2 mls of each solution provided 13850 micrograms of nitrogen together with the required amount of product to provide the equivalent of an application rate of 100 lbs of nitrogen per acre. A standard sample contained only urea and an unfertilized blank was treated with 2 mls of distilled water.

[5] = test system: nitrification; details: combination with UAN or banded urea solution; literature; cited from earlier work
[6] = Example 1, urea only, no additive
[7] = Example 3, urea only, no additive
[8] = Example 5, urea only, no additive

In the case of `[Ca+2].[Cl-].[Cl-]` [Calcium chloride], the “effect on ammonia volatilization (in words)” value [1] is given as “delays the start of ammonia volatilization”.

With `NC(N)=O` [Urea] the “% of N applied” value ([2]; 100 lbs N per ac) was 2.07%, the “Ammonia collected, mg Day 2” value ([2]; 100 lbs N per ac) was 0.14 mg and the “Ammonia collected, mg Day 7” value ([2]; 100 lbs N per ac) was 2.32 mg. The “Ammonia collected, mg Day 14” value ([2]; 100 lbs N per ac) was 0.78 mg, the “Ammonia collected, mg Day 21” value ([2]; 100 lbs N per ac) was 0.00 mg and the “Ammonia collected, mg Day 28” value ([2]; 100 lbs N per ac) was 0.00 mg. For the same molecule, the “Ammonia collected, mg Total” value ([2]; 100 lbs N per ac) was 3.25 mg, the “% of N applied” value ([2]; 200 lbs N per ac) was 3.17% and the “Ammonia collected, mg Day 2” value ([2]; 200 lbs N per ac) was 0.31 mg. For the same molecule, the “Ammonia collected, mg Day 7” value ([2]; 200 lbs N per ac) was 4.86 mg, the “Ammonia collected, mg Day 14” value ([2]; 200 lbs N per ac) was 4.31 mg and the “Ammonia collected, mg Day 21” value ([2]; 200 lbs N per ac) was 0.47 mg. For the same molecule, the “Ammonia collected, mg Day 28” value ([2]; 200 lbs N per ac) was 0.00 mg, the “Ammonia collected, mg Total” value ([2]; 200 lbs N per ac) was 9.94 mg and the “Solution pH” value ([3]; Example 2) was 8.4. For the same molecule, the “Solution pH” value ([3]; Example 4) was 9.0, the “% Loss 0-2 days” value [4, 6] was 22.0% and the “% Loss 3-7 days” value [4, 6] was 3.9%. For the same molecule, the “% Loss Total” value [4, 6] was 25.9%, the “% lost 0-2 days” value [4, 7] was 25.56% and the “% lost 3-7 days” value [4, 7] was 11.45%. The “% lost Total” value [4, 7] was 37.01%, the “% lost 0-2 days” value [4, 8] was 25.50% and the “% lost 3-7 days” value [4, 8] was 8.25%. The “% lost Total” value [4, 8] was 33.75%.

For ammonium polyphosphate, the “effect on nitrification (in words)” value [5] is given as “only a weak effect”.

For ammonium polysulfide, the “effect on nitrification (in words)” value [5] is given as “no effect on nitrification” and the “urease inhibition and ammonia volatilization inhibition, comparison between products (in words)” value ([4]; summary of Examples 1-4) is given as “less urease inhibition activity than calcium polysulfide”.
